Test results taken from patent US20240300977A1, “INHIBITORS OF DNA-DEPENDENT PROTEIN KINASE AND COMPOSITIONS AND USES THEREOF” (Intellia Therapeutics, Inc., priority 2021, published 2024).
“And” between values parts separate entries of the source, which are not always exact repeats. Identical values can stand only once.

Experiments:
T cells [1] = test: TRAC LNP editing and GFP insertion in activated T cells with DNA-PK inhibitors, flow cytometry; conditions: day 5 post-edit; for Mean % CD3^−/GFP+ Cells (n = 3): GFP positive of the CD3 negative T cells; for Mean % CD3^− Cells (n = 3): TRAC LNP + GFP AAV
T cells [2] = test: Fold T cell expansion following TRBC/TRAC editing with WT1-TCR AAV and DNA-PK inhibitors; conditions: Table 4
TRAC = conditions: human
T cells [3] = test: Off-target structural variation by UnIT; type: cell-based, human; conditions: T cells from Example 12, day 8 post-editing; TRAC sgRNA G013006
Description: (§1) On day 8 post-editing, T cells from Example 12 from the untreated, unedited, Compound 3 and Compound 4 guides samples were collected, spun down and the pellets were directly used as input material for gDNA isolation using “Zymo Quick DNA/RNA Mag Beads Kit” (Zymo Cat. R2131). The UnIT structural variant characterization assay was applied to these gDNA samples. High molecular weight genomic DNA is simultaneously fragmented and sequence-tagged (‘tagmented’) with the Tn5 transposase and an adapter with a partial Illumina P5 sequence and a 12 bp unique molecular identifier (UMI). Two sequential PCRs using a primer to P5 and hemi-nested gene specific primers (GSP) imparting the Illumina the P7 sequence to create two Illumina compatible NGS libraries per sample (Illumina, Ref 15033624). Sequencing across both directions of the CRISPR/Cas9 targeted cut site with the two libraries allows the inference and quantification of structural variants in DNA repair outcomes after genome editing. If the two fragments were aligned to different chromosomes, the SV was classified as an “inter-chromosomal translocation.” The magnitude of structural variation was shown in FIG. 9A and Table 18.

697 ALL cells (697-luc2) [4] = test: Cytokine release by WT1 TCR T cells, MSD U/R-PLEX; type: cell-based, human; design: unit not given here; conditions: 2:1 E:T, 24h supernatant, T cells engineered with inhibitor, duplicate values
Protocol: (§2) The ability of WT1-TCR T cells engineered from donors 007HD and 008HD to kill hematological cancer cells expressing natural levels of WT1 and release cytokines was evaluated. TCR KO cells generated as described above but without TRAC/AAV addition were used as a negative, non-killing control. Briefly, T cells were co-cultured with luciferase expressing 697 ALL cells (697-luc2), or K562-luc2 cells transduced to express HLA-A*02:01 (K5692-HLA-A*02:01-luc2) at various effector to target (E:T) ratios (2:1, 1:1, 0.5:1) in TCEM without the addition of IL-2, IL-7, or IL-15. […] After 24h of co-culture, supernatants from the 2:1 E:T ratio group were harvested and used in an MSD U/R-PLEX assay to quantify IL-2, TNFα, IFNγ, and Granzyme B following manufacturers protocol (Mesoscale Discovery). After 48h of co-culture luciferase activity was quantified using the Bright-GLO Luciferase Assay System (Promega) in relative luminescence units (RLU). Percent specific lysis was determined using the formula: […]

[5] = system: K562-luc2 cells transduced to express HLA-A*02:01; test: Cytokine release by WT1 TCR T cells, MSD U/R-PLEX; type: cell-based, human; design: unit not given here; conditions: K562-HLA-A2.1, 2:1 E:T, 24h supernatant, T cells engineered with inhibitor, duplicate values
Protocol: as §2

TRBC = test: Off-target site validation, rhAmpSeq; conditions: gRNA G016239 targeting TRBC; of 92 off-target sites; with the named DNA-PKI or none
697 ALL cells (697-luc2) [6] = test: WT1 TCR T cell mediated cytotoxicity, luciferase assay; type: cell-based, human; conditions: WT1-T cells (HD1) engineered with inhibitor, 48h, duplicate values
Protocol: (§3) The ability of WT1-TCR T cells engineered from donors 007HD and 008HD to kill hematological cancer cells expressing natural levels of WT1 and release cytokines was evaluated. TCR KO cells generated as described above but without TRAC/AAV addition were used as a negative, non-killing control. Briefly, T cells were co-cultured with luciferase expressing 697 ALL cells (697-luc2), or K562-luc2 cells transduced to express HLA-A*02:01 (K5692-HLA-A*02:01-luc2) at various effector to target (E:T) ratios (2:1, 1:1, 0.5:1) in TCEM without the addition of IL-2, IL-7, or IL-15. […] After 24h of co-culture, supernatants from the 2:1 E:T ratio group were harvested and used in an MSD U/R-PLEX assay to quantify IL-2, TNFα, IFNγ, and Granzyme B following manufacturers protocol (Mesoscale Discovery). After 48h of co-culture luciferase activity was quantified using the Bright-GLO Luciferase Assay System (Promega) in relative luminescence units (RLU). Percent specific lysis was determined using the formula:
(§4) % Specific Lysis=100−((RLU[Experimental Well]/RLU[Target Only Well])*100)

[7] = system: K562-luc2 cells transduced to express HLA-A*02:01; test: as above; type: cell-based, human; conditions: WT1-T cells (HD1) engineered with inhibitor, K562-HLA-A*02:01, 48h, duplicate values
Protocol: as §3, §4

T cells [8] = test: Insertion percent in T cells of Example 17; type: cell-based, human; conditions: T cells from Example 12; FIG. 9B
Description: as §1

In the case of `Cc1cc2ncnn2cc1Nc1ncc2c(c1C)n(C1CCOCC1)c(=O)n2C` [Compound 9, 3,7-dimethyl-6-((7-methyl-[1,2,4]triazolo[1,5-a]pyridin-6-yl)amino)-1-(tetrahydro-2H-pyran-4-yl)-1,3-dihydro-2H-imidazo[4,5-c]pyridin-2-one], the “Mean % CD3^−/GFP+ Cells (n = 3)” value (T cells [1]; compound 0.0625 uM) is reported as 28.27% and the “Mean % CD3^−/GFP+ Cells (n = 3)” value (T cells [1]; compound 1 uM) is reported as 27.83%.
In the case of `Cc1cc2ncnn2c(C)c1Nc1ncc2c(n1)n(C1CCOCC1)c(=O)n2C` [Compound 8, 2-((5,7-dimethyl-[1,2,4]triazolo[1,5-a]pyridin-6-yl)amino)-7-methyl-9-(tetrahydro-2H-pyran-4-yl)-7,9-dihydro-8H-purin-8-one], the “impact of T cell expansion by DNA-PK treatment” value (“impact of T cell expansion” for short) (T cells [2]) is reported as “no impact”, the “Mean % CD3^−/GFP+ Cells (n = 3)” value (T cells [1]; compound 0.0625 uM) is reported as 32.23% and the “Mean % CD3^−/GFP+ Cells (n = 3)” value (T cells [1]; compound 1 uM) is reported as 70.07%.
With `CCn1c(=O)n(C2CCOCC2)c2nc(Nc3cn4ncnc4cc3C)ncc21` [Compound 2, 7-ethyl-2-((7-methyl-[1,2,4]triazolo[1,5-a]pyridin-6-yl)amino)-9-(tetrahydro-2H-pyran-4-yl)-7,9-dihydro-8H-purin-8-one] the “Mean % CD3^−/GFP+ Cells (n = 3)” value (T cells [1]; compound 0.0625 uM) was 47.93% and the “Mean % CD3^−/GFP+ Cells (n = 3)” value (T cells [1]; compound 1 uM) was 79.40%.
`Cc1cc2ncnn2cc1Nc1ncc2c(n1)n(C1CC(O)C1)c(=O)n2C` (stereo not shown) [Compound 5, 9-(3-hydroxycyclobutyl)-7-methyl-2-((7-methyl-[1,2,4]triazolo[1,5-a]pyridin-6-yl)amino)-7,9-dihydro-8H-purin-8-one] was tested, and the “Mean % CD3^−/GFP+ Cells (n = 3)” value (T cells [1]; compound 0.0625 uM) was 53.00% and the “Mean % CD3^−/GFP+ Cells (n = 3)” value (T cells [1]; compound 1 uM) was 78.97%.
`Cc1cc2ncnn2c(C)c1Nc1cc2c(cn1)n(C)c(=O)n2C1CCOCC1` [Compound 7, 6-((5,7-dimethyl-[1,2,4]triazolo[1,5-a]pyridin-6-yl)amino)-3-methyl-1-(tetrahydro-2H-pyran-4-yl)-1,3-dihydro-2H-imidazo[4,5-c]pyridin-2-one] was tested, and the “impact of T cell expansion” value (T cells [2]) was “no impact”, the “Mean % CD3^−/GFP+ Cells (n = 3)” value (T cells [1]; compound 0.0625 uM) was 29.90% and the “Mean % CD3^−/GFP+ Cells (n = 3)” value (T cells [1]; compound 1 uM) was 43.43%.
For `Cc1cc2ncnn2cc1Nc1ncc2c(n1)n(C1CCC(F)(F)CC1)c(=O)n2C` [Compound 3, 9-(4,4-difluorocyclohexyl)-7-methyl-2-((7-methyl-[1,2,4]triazolo[1,5-a]pyridin-6-yl)amino)-7,9-dihydro-8H-purin-8-one], the “Sites Validated” value (TRAC) was 0, the “Mean % CD3^−/GFP+ Cells (n = 3)” value (T cells [1]; compound 0.0625 uM) was 75.50% and the “Mean % CD3^− Cells (n = 3)” value (T cells [1]; compound 0.0625 uM) was 50.73%. The “Mean % CD3^−/GFP+ Cells (n = 3)” value (T cells [1]; compound 1 uM) was 79.60%, the “Mean % CD3^− Cells (n = 3)” value (T cells [1]; compound 1 uM) was 58.90% and the “Unintended Structural Variance (Average)” value (T cells [3]) was 1.30%. For the same compound, the “Granzyme B” value (697 ALL cells (697-luc2) [4]; donor 007HD) was 1441.06 and 1664.25, the IFN-gamma (697 ALL cells (697-luc2) [4]; donor 007HD) was 923.97 and 977.71 and the IL-2 (697 ALL cells (697-luc2) [4]; donor 007HD) was 2.23 and 4.32. The TNF-alpha (697 ALL cells (697-luc2) [4]; donor 007HD) was 5.29 and 3.46, the “Granzyme B” value (697 ALL cells (697-luc2) [4]; donor 008HD) was 1777.28 and 1609.68 and the IFN-gamma (697 ALL cells (697-luc2) [4]; donor 008HD) was 7169.43 and 6733.05. For the same compound, the IL-2 (697 ALL cells (697-luc2) [4]; donor 008HD) was 8.1 and 7.14, the TNF-alpha (697 ALL cells (697-luc2) [4]; donor 008HD) was 18.57 and 16.3 and the “Granzyme B” value ([5]; donor 007HD) was 17178.54 and 20713.6. For the same compound, the IFN-gamma ([5]; donor 007HD) was 41527.06 and 59686.42, the TNF-alpha ([5]; donor 007HD) was 66.56 and 73.76 and the “Granzyme B” value ([5]; donor 008HD) was 17134.42 and 18197.02. For the same compound, the IFN-gamma ([5]; donor 008HD) was 200584.6 and 216197.4, the IL-2 ([5]; donor 008HD) was 484.52 and 524.89 and the TNF-alpha ([5]; donor 008HD) was 302.06 and 324.18. The “Sites Validated” value (TRBC) was 0, the Percent specific lysis (697 ALL cells (697-luc2) [6]; E:T 0.5, donor 007HD) was 4.60% and 2.72% and the Percent specific lysis (697 ALL cells (697-luc2) [6]; E:T 0.5, donor 008HD) was 63.10% and 72.62%. For the same compound, the Percent specific lysis (697 ALL cells (697-luc2) [6]; E:T 1, donor 007HD) was 39.43% and 30.39%, the Percent specific lysis (697 ALL cells (697-luc2) [6]; E:T 1, donor 008HD) was 95.29% and 94.31% and the Percent specific lysis (697 ALL cells (697-luc2) [6]; E:T 2, donor 007HD) was 77.64% and 65.49%. For the same compound, the Percent specific lysis (697 ALL cells (697-luc2) [6]; E:T 2, donor 008HD) was 98.98% and 98.97%, the Percent specific lysis ([7]; E:T 0.5, donor 007HD) was 47.03% and 41.52% and the Percent specific lysis ([7]; E:T 0.5, donor 008HD) was 72.45% and 71.77%. The Percent specific lysis ([7]; E:T 1, donor 007HD) was 78.53% and 75.83%, the Percent specific lysis ([7]; E:T 1, donor 008HD) was 98.67% and 99.08% and the Percent specific lysis ([7]; E:T 2, donor 007HD) was 98.79% and 96.99%. For the same compound, the Percent specific lysis ([7]; E:T 2, donor 008HD) was 99.96% and 99.84% and the “Insertion Percent (Average)” value (T cells [8]) was 68.35%.
`Cc1cc2ncnn2cc1Nc1ncc2c(n1)n(C1CCOCC1)c(=O)n2C` [Compound 1, 7-methyl-2-((7-methyl-[1,2,4]triazolo[1,5-a]pyridin-6-yl)amino)-9-(tetrahydro-2H-pyran-4-yl)-7,9-dihydro-8H-purin-8-one] was tested, and the Percent specific lysis (697 ALL cells (697-luc2) [6]; E:T 0.5, donor 007HD) was 12.14% and 5.54%, the Percent specific lysis (697 ALL cells (697-luc2) [6]; E:T 0.5, donor 008HD) was 43.47% and 44.29% and the Percent specific lysis (697 ALL cells (697-luc2) [6]; E:T 1, donor 007HD) was 29.28% and 30.44%. The Percent specific lysis (697 ALL cells (697-luc2) [6]; E:T 1, donor 008HD) was 77.92% and 81.24%, the Percent specific lysis (697 ALL cells (697-luc2) [6]; E:T 2, donor 007HD) was 65.54% and 61.43% and the Percent specific lysis (697 ALL cells (697-luc2) [6]; E:T 2, donor 008HD) was 98.09% and 98.25%. For the same compound, the Percent specific lysis ([7]; E:T 0.5, donor 007HD) was 37.10% and 36.80%, the Percent specific lysis ([7]; E:T 0.5, donor 008HD) was 56.76% and 58.18% and the Percent specific lysis ([7]; E:T 1, donor 007HD) was 69.32% and 70.95%. For the same compound, the Percent specific lysis ([7]; E:T 1, donor 008HD) was 83.56% and 79.54%, the Percent specific lysis ([7]; E:T 2, donor 007HD) was 95.40% and 92.50% and the Percent specific lysis ([7]; E:T 2, donor 008HD) was 99.29% and 99.66%.
With `Cc1cc2ncnn2cc1Nc1cc2c(cn1)n(C)c(=O)n2C1CCOCC1` [Compound 6, 3-methyl-6-((7-methyl-[1,2,4]triazolo[1,5-a]pyridin-6-yl)amino)-1-(tetrahydro-2H-pyran-4-yl)-1,3-dihydro-2H-imidazo[4,5-c]pyridin-2-one] the “impact of T cell expansion” value (T cells [2]) was “no impact”, the “Mean % CD3^−/GFP+ Cells (n = 3)” value (T cells [1]; compound 0.0625 uM) was 35.10% and the “Mean % CD3^− Cells (n = 3)” value (T cells [1]; compound 0.0625 uM) was 33.87%. For the same compound, the “Mean % CD3^−/GFP+ Cells (n = 3)” value (T cells [1]; compound 1 uM) was 74.40% and the “Mean % CD3^− Cells (n = 3)” value (T cells [1]; compound 1 uM) was 58.30%.
